Reference: patent US20240116985A1, “STAPLED PEPTIDES AND METHODS THEREOF” (priority 2020, published 2024)
Starred links: 1 amine or outer side, 2 acyl side, 3 side chain; linkers in the order of their positions; H or OH if unused. Positions of bridges follow the written chain, without caps; N, C: chain ends. Non-standard residues stand in square brackets, D forms with d. Residues, ends and D or L forms follow the SMILES beside them. X3 = O=C([C@]1(CC=[*:3])CCCN1[*:1])[*:2]; Bta = N[C@@H](Cc1csc2ccccc12)C(=O)O; tBuAla = CC(C)(C)C[C@H](N)C(=O)O; 3Thi = N[C@@H](Cc1ccsc1)C(=O)O; R5 = C=CCCC[C@@](C)(N)C(=O)O; S5 = C=CCCC[C@](C)(N)C(=O)O; αMeP = C[C@@]1(C(=O)O)CCCN1; Aib = CC(C)(N)C(=O)O

Biological target: T1, full-length beta-Catenin (Uniprot ID P35222) (Homo sapiens, UniProt P35222)
T1 construct: 10 nM full-length beta-Catenin (Uniprot ID P35222)
T1 sequence (P35222 1-781): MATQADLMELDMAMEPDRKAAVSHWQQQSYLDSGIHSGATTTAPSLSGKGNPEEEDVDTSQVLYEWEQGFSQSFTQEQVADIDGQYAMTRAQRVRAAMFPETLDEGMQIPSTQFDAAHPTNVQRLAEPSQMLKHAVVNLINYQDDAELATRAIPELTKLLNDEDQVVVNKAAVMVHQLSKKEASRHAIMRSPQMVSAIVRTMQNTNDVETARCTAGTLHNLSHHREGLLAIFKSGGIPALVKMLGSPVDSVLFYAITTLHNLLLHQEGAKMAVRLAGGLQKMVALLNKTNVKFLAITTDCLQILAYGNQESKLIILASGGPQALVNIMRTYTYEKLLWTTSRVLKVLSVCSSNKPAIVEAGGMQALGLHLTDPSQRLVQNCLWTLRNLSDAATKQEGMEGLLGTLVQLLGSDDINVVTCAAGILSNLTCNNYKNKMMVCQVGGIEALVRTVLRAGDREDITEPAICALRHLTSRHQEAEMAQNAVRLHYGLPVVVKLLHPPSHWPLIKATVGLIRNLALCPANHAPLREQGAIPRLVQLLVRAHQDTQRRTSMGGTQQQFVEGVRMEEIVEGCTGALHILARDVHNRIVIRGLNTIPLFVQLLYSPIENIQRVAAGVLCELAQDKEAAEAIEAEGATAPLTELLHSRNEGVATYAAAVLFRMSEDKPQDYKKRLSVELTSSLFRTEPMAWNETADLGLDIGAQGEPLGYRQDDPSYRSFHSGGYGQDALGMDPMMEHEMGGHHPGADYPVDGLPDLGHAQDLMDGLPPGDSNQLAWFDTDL
Assay: Fluorescence polarization IC50 (beta-catenin / 5FAM-TCF4 10-53 competition)
Format: binding
Conditions: fluorescence polarization; read-out: beta-Catenin FP IC50

Structure (SMILES) | IC50
CC(=O)N1CCC[C@H]1C(=O)N[C@@H](CC(=O)O)C(=O)N[C@@H](CC(C)(C)C)C(=O)N[C@]1(C)CCCCCCCCCOC(=O)N2CC[C@@](C(=O)N[C@@H](Cc3ccsc3)C(=O)N[C@@H](Cc3csc4ccccc34)C(=O)N[C@@H](CCC(N)=O)C(N)=O)(C2)NC(=O)[C@H](CC(C)C)NC(=O)[C@H](Cc2ccccc2)NC(=O)[C@H](C)NC(=O)[C@H](C)NC(=O)[C@H](CC(=O)O)NC(=O)[C@H](CC(=O)O)NC1=O [I-1991, Ac-Pro-Asp-Npg-R6-Asp-Asp-Ala-Ala-Phe-Leu-PyrS2-3Thi-BztA-Gln-NH2] | 397 nM
CC(=O)N1CCC[C@]12CC=CCCCC1(CCCC=CCCCOC(=O)N3CC[C@@](C(=O)N[C@@H](Cc4ccsc4)C(=O)N[C@@H](Cc4csc5ccccc45)C(=O)N[C@@H](CCC(N)=O)C(N)=O)(C3)NC(=O)[C@H](CC(C)C)NC(=O)[C@H](Cc3ccccc3)NC(=O)[C@H](C)NC(=O)[C@H](C)NC(=O)[C@H](CN3CCCC[C@@H]3C(=O)O)NC(=O)[C@H](CC(=O)O)NC1=O)NC(=O)[C@H](CC(C)(C)C)NC(=O)[C@H](CC(=O)O)NC2=O (stereo partly drawn) [I-1969, Ac-PL3-Asp-Npg-B5-Asp-R2COOPipA-Ala-Ala-Phe-Leu-PyrS2-3Thi-BztA-Gln-NH2] | 49 nM
CC(=O)N1CCC[C@]12CC=CCCCC1(CCCC=CCCCOC(=O)N3CC[C@](C(=O)N[C@@H](Cc4ccsc4)C(=O)N[C@@H](Cc4csc5ccccc45)C(=O)N[C@@H](CCC(N)=O)C(N)=O)(C3)NC(=O)[C@H](CC(N)=O)NC(=O)[C@H](Cc3ccccc3)NC(=O)[C@H](C)NC(=O)[C@H](C)NC(=O)[C@H](CC(=O)O)NC(=O)[C@H](CC(=O)O)NC1=O)NC(=O)[C@H](CC(C)(C)C)NC(=O)[C@H](CC(=O)O)NC2=O (stereo partly drawn) [I-2018, Ac-PL3-Asp-Npg-B5-Asp-Asp-Ala-Ala-Phe-Asn-PyrR2-3Thi-BztA-Gln-NH2] | 1680 nM
CC(=O)N1CCC[C@]12CC=CCCCC1(CCCC=CCCCOC(=O)N3CC[C@@](C(=O)N[C@@H](Cc4ccsc4)C(=O)N[C@@H](Cc4csc5ccccc45)C(=O)N[C@@H](Cc4ccccc4)C(N)=O)(C3)NC(=O)[C@H](CC(C)C)NC(=O)[C@H](Cc3ccccc3)NC(=O)[C@H](C)NC(=O)[C@H](Cc3c[nH]cn3)NC(=O)[C@H](Cc3cccc(C(=O)O)c3)NC(=O)[C@H](CC(=O)O)NC1=O)NC(=O)[C@H](CC(C)(C)C)NC(=O)[C@H](CC(=O)O)NC2=O (stereo partly drawn) [I-1910, Ac-PL3-Asp-Npg-B5-Asp-3COOHF-His-Ala-Phe-Leu-PyrS2-3Thi-BztA-Phe-NH2] | 17 nM
CC(=O)N1CCC[C@]12CC=CCCCC1(CCCC=CCCCOC(=O)N3CC[C@@](C(=O)N[C@@H](Cc4ccsc4)C(=O)N[C@@H](Cc4csc5ccccc45)C(=O)N[C@@H](CCC(N)=O)C(N)=O)(C3)NC(=O)[C@H](CC(N)=O)NC(=O)[C@H](Cc3ccccc3)NC(=O)[C@H](C)NC(=O)[C@H](C)NC(=O)[C@H](CC(=O)O)NC(=O)[C@H](CC(C)C)NC1=O)NC(=O)[C@H](CC(C)(C)C)NC(=O)[C@H](CC(=O)O)NC2=O (stereo partly drawn) [I-1212, Ac-PL3-Asp-Npg-B5-Leu-Asp-Ala-Ala-Phe-Asn-PyrS2-3Thi-BztA-Gln-NH2] | 8660 nM
CC(=O)N1CCC[C@]12CC=CCCCC[C@@](C)(C(=O)N[C@@H](CC(=O)O)C(=O)N[C@@H](CC(=O)O)C(=O)N[C@@H](C)C(=O)N[C@@H](C)C(=O)N[C@@H](Cc1ccccc1)C(=O)N[C@@H](CC(C)C)C(=O)NC(C)(C)C(=O)N[C@@H](Cc1ccsc1)C(=O)N[C@@H](Cc1csc3ccccc13)C(=O)N[C@@H](CCC(N)=O)C(N)=O)NC(=O)[C@H](CC(C)(C)C)NC(=O)[C@H](CC(=O)O)NC2=O [I-1977, Ac-PL3-Asp-Npg-S6-Asp-Asp-Ala-Ala-Phe-Leu-Aib-3Thi-BztA-Gln-NH2] | 4280 nM
CC(=O)N1CCC[C@@]1(C)C(=O)N[C@@H](CC(=O)O)C(=O)N[C@@H](CC(C)(C)C)C(=O)NC(C)(C)C(=O)N[C@@H](CC(=O)O)C(=O)N[C@@H](CC(=O)O)C(=O)N[C@@H](C)C(=O)N[C@@H](C)C(=O)N[C@@H](Cc1ccccc1)C(=O)N[C@@H](CCC(N)=O)C(=O)NC(C)(C)C(=O)N[C@@H](Cc1ccsc1)C(=O)N[C@@H](Cc1csc2ccccc12)C(=O)N[C@@H](Cc1c[nH]cn1)C(=O)N[C@@H](CCCCN)C(N)=O [I-2231, Ac-MePro-Asp-Npg-Aib-Asp-Asp-Ala-Ala-Phe-Gln-Aib-3thi-BztA-His-Lys-NH2] (Ac-[αMeP]D[tBuAla][Aib]DDAAFQ[Aib][3Thi][Bta]HK-NH2) | 5190 nM
CC(=O)N1CCC[C@]12CC=CCCCC1(CCCC=CCCCOC(=O)N3CC[C@@](C(=O)N[C@@H](Cc4ccccc4Cl)C(=O)N[C@@H](Cc4csc5ccccc45)C(=O)N[C@H](CO)CC(C)C)(C3)NC(=O)[C@H]([C@@H](C)O)NC(=O)[C@H](Cc3ccccc3)NC(=O)[C@H](C)NC(=O)[C@H](C)NC(=O)[C@H](CN(CC(=O)O)CC(F)(F)F)NC(=O)[C@H](CC(=O)O)NC1=O)NC(=O)[C@H](CC(C)(C)C)NC(=O)[C@H](CC(=O)O)NC2=O (stereo partly drawn) [I-1243, Ac-PL3-Asp-Npg-B5-Asp-TfeGA-Ala-Ala-Phe-Thr-PyrS2-2C1F-BztA-Leuo1] | 82 nM
CC(=O)N1CCC[C@]12CC=CCCCCC1(CCCCC=CCOC(=O)N3CC[C@@](C(=O)N[C@@H](Cc4ccccc4C(F)(F)F)C(=O)N[C@@H](Cc4csc5ccccc45)C(=O)N[C@@H](C)C(N)=O)(C3)NC(=O)[C@H](CC(C)C)NC(=O)[C@H](Cc3ccccc3)NC(=O)[C@H](C)NC(=O)[C@H](CCC(N)=O)NC(=O)[C@H](Cc3cccc(C(=O)O)c3)NC(=O)[C@H](CC(=O)O)NC1=O)NC(=O)[C@H](CC(C)(C)C)NC(=O)[C@H](CC(=O)O)NC2=O (stereo partly drawn) [I-2507, Ac-PL3-Asp-Npg-B6-Asp-3COOHF-Gln-Ala-Phe-Leu-PyrS-2F3MeF-BztA-Ala-NH2] | 168 nM
CC(=O)N1CCC[C@]12CC=CCCCC1(CCCC=CCCCOC(=O)N3CC[C@@](C(=O)N[C@@H](Cc4ccsc4)C(=O)N[C@@H](Cc4csc5ccccc45)C(=O)N[C@@H](C)C(N)=O)(C3)NC(=O)[C@H](C(C)C)NC(=O)[C@H](Cc3ccccc3)NC(=O)[C@H](C)NC(=O)[C@H](CCC(N)=O)NC(=O)[C@H](Cc3cccc(C(=O)O)c3)NC(=O)[C@H](CC(=O)O)NC1=O)NC(=O)[C@H](CC(C)(C)C)NC(=O)[C@H](CC(=O)O)NC2=O (stereo partly drawn) [I-2054, Ac-PL3-Asp-Npg-B5-Asp-3COOHF-Gln-Ala-Phe-Val-PyrS2-3Thi-BztA-Ala-NH2] | 5 nM
CC(=O)N1CCC[C@]12CC=CCCCC1(CCCC=CCCCOC(=O)N3CC[C@@](C(=O)N[C@@H](Cc4ccccc4)C(=O)N[C@@H](Cc4csc5ccccc45)C(=O)N[C@@H](CCCCN)C(N)=O)(C3)NC(=O)[C@H](CC(C)C)NC(=O)[C@H](Cc3ccccc3)NC(=O)[C@H](C)NC(=O)[C@H](CC(N)=O)NC(=O)[C@H](CCC(N)=O)NC(=O)[C@H](CC(=O)O)NC1=O)NC(=O)[C@H](CC1CCCCC1)NC(=O)[C@H](CC(N)=O)NC2=O (stereo partly drawn) [I-2420, Ac-PL3-Asn-Cha-B5-Asp-Gln-Asn-Ala-Phe-Leu-PyrS2-Phe-BztA-Lys-NH2] | 2120 nM
CC(=O)N1CCC[C@H]1C(=O)N[C@@H](CC(=O)O)C(=O)N[C@@H](CC(C)(C)C)C(=O)N[C@]1(C)CCCCCCCOC(=O)N2CC[C@@](C(=O)N[C@@H](Cc3ccsc3)C(=O)N[C@@H](Cc3csc4ccccc34)C(=O)N[C@@H](CCC(N)=O)C(N)=O)(C2)NC(=O)[C@H](CC(C)C)NC(=O)[C@H](Cc2ccccc2)NC(=O)[C@H](C)NC(=O)[C@H](C)NC(=O)[C@H](CC(=O)O)NC(=O)[C@H](CC(=O)O)NC1=O [I-1992, Ac-Pro-Asp-Npg-R4-Asp-Asp-Ala-Ala-Phe-Leu-PyrS2-3Thi-BztA-Gln-NH2] | 536 nM
CC(=O)N1CCC[C@]12CC=CCCC[C@@](C)(C(=O)N[C@@H](CC(=O)O)C(=O)N[C@@H](CC(=O)O)C(=O)N[C@@H](C)C(=O)N[C@@H](C)C(=O)N[C@@H](Cc1ccccc1)C(=O)N[C@]1(C)CCCC=CCCC[C@@](C)(C(=O)N[C@@H](C)C(N)=O)NC(=O)[C@H](Cc3csc4ccccc34)NC(=O)[C@H](Cc3ccsc3)NC(=O)[C@H](C)NC1=O)NC(=O)[C@H](CC(C)(C)C)NC(=O)[C@H](CC(=O)O)NC2=O [I-1778, Ac-PL3-Asp-Npg-S5-Asp-Asp-Ala-Ala-Phe-R5-Ala-3Thi-BztA-S5-Ala-NH2] (Ac-[X3]D[tBuAla][S5]DDAAF[R5]A[3Thi][Bta][S5]A-NH2; staple 1-4, 10-14 (inferred)) | 2080 nM
CC(=O)N1CCC[C@]12CC=CCCCC1(CCCC=CCCCOC(=O)N3CC[C@@](C(=O)N[C@@H](Cc4ccccc4)C(=O)N[C@@H](Cc4csc5ccccc45)C(=O)N[C@@H](CC(=O)N4CCOCC4)C(N)=O)(C3)NC(=O)[C@H](CC(C)C)NC(=O)[C@H](Cc3ccccc3)NC(=O)[C@H](C)NC(=O)[C@H]([C@@H](C)O)NC(=O)[C@H](CCC(N)=O)NC(=O)[C@H](CC(=O)O)NC1=O)NC(=O)[C@H](CC1CCCCC1)NC(=O)[C@H](CC(N)=O)NC2=O (stereo partly drawn) [I-2503, Ac-PL3-Asn-Cha-B5-Asp-Gln-Thr-Ala-Phe-Leu-PyrS2-Phe-BztA-MorphAsn-NH2] | 1310 nM
